Where two headings read alike, the source gives them in different places. Values belong to the compound of their own block, whether it stands above or below them.
Test system: PMA-differentiated THP-1 cells
Assay: IL-1β production in PMA-differentiated THP-1 cells stimulated with gramicidin (hTHP-1 assay containing 2% fetal bovine serum; Procedures 1 and 2)
Assay type: cell-based, human
Conditions: 2% fetal bovine serum
Procedure, shortened: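 Compound titrations in 0.37% final DMSO were added to THP-1 cells that had been plated after 16-18 h PMA treatment, 50,000 per well in 2% FBS. One hour later the cells received gramicidin (5 μM, 2 h) and were centrifuged. HTRF detected IL-1β in the collected supernatants.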

[1] = Homo sapiens, THP-1, Table B3, hTHP-1 assay, class symbols, read-out: IC50
[2] = Table B2, class symbols, read-out: hTHP-1 IC50
[3] = Homo sapiens, THP-1, Table B2, class symbols, read-out: hTHP-1 IC50
[4] = Table B4, class symbols, read-out: hTHP-1 IC50
[5] = Homo sapiens, THP-1, Table B1, numeric bounds, read-out: Average IC50 of compounds in hTHP-1 assay: hTHP-1 IC50
[6] = Homo sapiens, THP-1, Table B2, numeric bounds, read-out: hTHP-1 IC50
[7] = Homo sapiens, THP-1, Table B1, class symbols, read-out: Average IC50 of compounds in hTHP-1 assay: hTHP-1 IC50
[8] = Table B3, hTHP-1 assay, class symbols, read-out: IC50

IC50 [1]: 1 to 5 µM
SMILES: CC(C)(O)c1csc(S(N)(=O)=NC(=O)Nc2cc(C(F)(F)F)nc3c2CCC3)c1 (single isomer, unassigned) [Example 667, (R) or (S)-4-(2-hydroxypropan-2-yl)-N′-((2-(trifluoromethyl)-6,7-dihydro-5H-cyclopenta[b]pyridin-4-yl)carbamoyl)thiophene-2-sulfonimidamide]

IC50 [2]: 1 to 5 µM
SMILES: Cc1c(C2CC2)nc2c(c1NC(=O)N=S(N)(=O)c1cc(C(C)(C)O)cs1)CCC2C (single isomer, unassigned) [Compound 656d, (R, S) or (R, R) or (S, R) or (S, S)-N′-((2-Cyclopropyl-3,7-dimethyl-6,7-dihydro-5H-cyclopenta[b]pyridin-4-yl)carbamoyl)-4-(2-hydroxypropan-2-yl)thiophene-2-sulfonimidamide]

IC50 [3]: 0.04 to 0.2 µM
SMILES: Cc1c(C(C)C)nc2c(c1NC(=O)N=S(N)(=O)c1cc(C(C)(C)O)cs1)CCC2 (centres unmarked) [Compound 681, 4-(2-Hydroxypropan-2-yl)-N′-((2-isopropyl-3-methyl-6,7-dihydro-5H-cyclopenta[b]pyridin-4-yl)carbamoyl)thiophene-2-sulfonimidamide]

IC50 (Table B1, class symbols, read-out: Average IC50 of compounds in hTHP-1 assay: hTHP-1 IC50): 0.04 to 0.2 µM
SMILES: CC(C)(O)c1ncc(S(N)(=O)=NC(=O)Nc2c3c(nc4c2CCC42CC2)CCC3)s1 (single isomer, unassigned) [Compound 136b, (R) or (S)-2-(2-hydroxy-propan-2-yl)-N′-((1′,5′,6′,7′-tetrahydro-2′H-spiro[cyclopropane-1,3′-dicyclopenta[b,e]pyridin]-8′-yl)carbamoyl)thiazole-5-sulfonimidamide]

IC50 [4]: 5 to 30 µM
SMILES: CCn1cc(F)c(S(N)(=O)=NC(=O)Nc2c3c(nc(C(F)(F)F)c2C2CC2)CCC3)n1 (single isomer, unassigned) [Example 774, (S) or (R)-N′-((3-cyclopropyl-2-(trifluoromethyl)-6,7-dihydro-5H-cyclopenta[b]pyridin-4-yl)carbamoyl)-1-ethyl-4-fluoro-1H-pyrazole-3-sulfonimidamide]

IC50 [3]: 0.2 to 1 µM
SMILES: CC(C)(O)c1csc(S(N)(=O)=NC(=O)Nc2c3c(nc(C4CC4)c2C2CC2)CCC3)c1 (centres unmarked) [Compound 670, N′-((2,3-dicyclopropyl-6,7-dihydro-5H-cyclopenta[b]pyridin-4-yl)carbamoyl)-4-(2-hydroxypropan-2-yl)thiophene-2-sulfonimidamide]

IC50 [5]: > 30 µM
SMILES: CCc1c(-c2ccccc2)nc2c(c1NC(=O)N=S(N)(=O)c1cnc(C(C)(C)O)s1)CCC2 (centres unmarked) [Compound 144, N′-((3-ethyl-2-phenyl-6,7-dihydro-5H-cyclopenta[b]pyridin-4-yl)carbamoyl)-2-(2-hydroxypropan-2-yl)thiazole-5-sulfonimidamide]

IC50 [3]: 1 to 5 µM
SMILES: Cc1cc(S(N)(=O)=NC(=O)Nc2c3c(nc4c2CCC4)CCC3)sc1C(C)(C)O (centres unmarked) [Compound 692, N′-((1,2,3,5,6,7-hexahydrodicyclopenta[b,e]pyridin-8-yl)carbamoyl)-5-(2-hydroxypropan-2-yl)-4-methylthiophene-2-sulfonimidamide]

IC50 [1]: 1 to 5 µM
SMILES: Cc1c(C(F)(F)F)nc2c(c1NC(=O)N=S(N)(=O)c1cnn3c1OCCC3)CCC2 (single isomer, unassigned) [Example 657, (R) or (S)-N′-((3-((3-2-(trifluoromethyl)-6,7-dihydro-5H-cyclopenta[b]pyridin-4-yl)carbamoyl)-6,7-dihydro-5H-pyrazolo[5,1-b][1,3]oxazine-3-sulfonimidamide]

IC50 [3]: 1 to 5 µM
SMILES: CCc1ccsc1S(N)(=O)=NC(=O)Nc1c2c(nc3c1CC[C@H]3C)CCC2 (some centres unmarked) [Compound 725a]

IC50 [6]: > 30 µM
SMILES: CC(C)(O)c1scc(S(N)(=O)=NC(=O)Nc2c3c(nc4c2CCC4)CCC3)c1F (single isomer, unassigned) [Compound 701b, (S) or (R)-4-Fluoro-N′-((1,2,3,5,6,7-hexahydrodicyclopenta [b,e]pyridin-8-yl)carbamoyl)-5-(2-hydroxypropan-2-yl)thiophene-3-sulfonimidamide]

IC50 [2]: 5 to 30 µM
SMILES: CC(C)(O)c1sc(S(N)(=O)=NC(=O)Nc2c3c(nc4c2CCC4(C)C)CCC3)nc1CO (single isomer, unassigned) [Compound 642a, (S) or (R)-N′-((3,3-dimethyl-1,2,3,5,6,7-hexahydrodicyclopenta [b,e]pyridin-8-yl)carbamoyl)-4-(hydroxymethyl)-5-(2-hydroxypropan-2-yl)thiazole-2-sulfonimidamide]

IC50 [7]: 5 to 30 µM
SMILES: CC(C)c1ncc(F)c(C(C)C)c1NC(=O)N=S(N)(=O)c1ncc(C(C)(C)O)s1 (single isomer, unassigned) [Compound 165b]

IC50 [5]: > 20 µM
SMILES: CC(C)c1csc(S(N)(=O)=NC(=O)Nc2c3c(nc4c2CCC4)CCC3)c1 (single isomer, unassigned) [Compound 173b, (S) or (R)-N′-((1,2,3,5,6,7-hexahydrodicyclo-penta[b,e]pyridin-8-yl)carbamoyl)-4-isopropylthiophene-2-sulfonimidamide]

IC50 [8]: 1 to 5 µM
SMILES: Cc1c(C(F)(F)F)nc2c(c1NC(=O)N=S(N)(=O)c1cnc(C(C)(C)O)s1)CCC2C (single isomer, unassigned) [Example 703, (R/S, S) or (R/S, R)-N′-((3,7-dimethyl-2-(trifluoromethyl)-6,7-dihydro-5H-cyclopenta[b]pyridin-4-yl)carbamoyl)-2-(2-hydroxypropan-2-yl)thiazole-5-sulfonimidamide]

IC50 [4]: 0.008 to 0.04 µM
SMILES: CCn1cc(F)c(S(N)(=O)=NC(=O)Nc2c3c(nc(C(F)(F)F)c2-c2ccccc2)CCC3)n1 (single isomer, unassigned) [Example 767, (R) or (S)-1-ethyl-4-fluoro-N′-((3-phenyl-2-(trifluoromethyl)-6,7-dihydro-5H-cyclopenta[b]pyridin-4-yl)carbamoyl)-1H-pyrazole-3-sulfonimidamide]

IC50 [7]: 0.04 to 0.2 µM
SMILES: CC(C)(O)c1cc(F)c(S(N)(=O)=NC(=O)Nc2c3c(nc4c2CCC42CC2)CCC3)s1 (centres unmarked) [Compound 101, 3-fluoro-5-(2-hydroxypropan-2-yl)-N′-((1′,5′,6′,7′-tetrahydro-2′H-spiro[cyclopropane-1,3′-dicyclopenta[b,e]pyridin]-8′-yl)carbamoyl)thiophene-2-sulfonimidamide]

IC50 [8]: 1 to 5 µM
SMILES: CCn1cc(F)c(S(N)(=O)=NC(=O)Nc2c(C)c(C(F)(F)F)nc3c2CCC3)n1 (single isomer, unassigned) [Example 650, (S) or (R)-1-ethyl-4-fluoro-N′-((3-methyl-2-(trifluoromethyl)-6,7-dihydro-5H-cyclopenta[b]pyridin-4-yl)carbamoyl)-1H-pyrazole-3-sulfonimidamide]

IC50 [6]: > 30 µM
SMILES: CCC1CCc2c1nc1c(c2NC(=O)N=S(N)(=O)c2ccn(C(F)F)n2)CCC1 (single isomer, unassigned) [Compound 668a, (S, S) or (S, R) or (R, S) or (R, R)-1-(Difluoromethyl)-N′-((3-ethyl-1,2,3,5,6,7-hexahydrodicyclopenta [b,e]pyridin-8-yl)carbamoyl)-1H-pyrazole-3-sulfonimidamide]

IC50 [5]: > 30 µM
SMILES: CC(C)(O)c1ncc(S(N)(=O)=NC(=O)Nc2nc3ccccc3c3c2CCC3)s1 (centres unmarked) [Compound 111, N′-((2,3-dihydro-1H-cyclopenta[c]quinolin-4-yl)carbamoyl)-2-(2-hydroxypropan-2-yl)thiazole-5-sulfonimidamide]
